# Data taken from US20220218710A1, “Inhibition of Neddylation for Treatment of MS” (The Regents of the University of California, priority 2019, published 2022).
# System: experimental autoimmune encephalomyelitis (EAE)
# Type: in vivo, C57BL/6 mice
# Protocol: FIGS. 3A, 3B, and 3C. FIGS. 3A, 3B, and 3C depicts pevonedistat treatment effects in an MS animal model. FIG. 3A depicts the trial design: C57BL/6 mice were treated daily starting on Day−1 with either Pevonedistat (20 mg/kg) or placebo (n=10/group). The result shown here is one representative of two independent experiments. EAE was induced through active immunization with myelin oligodendrocyte (MOG) peptide 35-55 following standard protocols (triangles). Weights were taken on D−1, D7, and D14 (dots). Animals were scored daily. Mice were sacrificed and brain and spinal cords of were harbored on Day 16 at peak disease (n=4/group) (triangle). FIG. 3B depicts EAE severity: Diseases was assessed blinded using a […] scale from 0 to 5 (0=no symptoms, 5=death). Data shown here are from one representative of two experiments. FIG. 3C depicts mice weights over the course of the experiment. ****p-value<0.001, 2-way ANOVA test.
# EAE induction and neddylation inhibition in mice. Four weeks old female C57BL/6 mice were used. All mice were housed in closed caging systems and provided with standard irradiated chow diet, acidified water ad libitum and housed under a 12-hour light cycle. Pevonedistat (MLN4924) (Chemietek Inc., Indianapolis, Ind.) was dissolved in DMSO and further diluted in 30% of PEG300 and 5% of TWEEN in ddH2O at a concentration of 40 mg/mL and stored at −20° C. 7-8 week old mice were treated daily with 20 mg/kg Pevonedistat or vehicle (same concentration of buffer without Pevonedistat) starting at day −1. Mice were immunized subcutaneously on day 0 with 100 μg MOG35-55 emulsified in incomplete Freund's adjuvant supplemented with Mycobacterium tuberculosis followed by two intraperitoneal injections on Day 0 and Day 2 with 300 ng pertussis each. […] Mice were scored daily on a […] scale in a blinded fashion as follows: 0, no deficit; 1, limp tail only; 2, limp tail and hind limb weakness; 3, complete hind limb paralysis; 4, complete hind limb paralysis and partial/complete forelimb paralysis; 5, death.
# Inhibition of neddylation reduces EAE. […] Pevonedistat (MLN4924), which is a small molecule and first-in-class inhibitor of NAE was next used in experimental autoimmune encephalomyelitis (EAE), an established MS mouse model driven by a strong CD4+ T cell response (FIG. 3A). Although Pevonedistat was originally tested as a cancer therapy, recent studies proposed this agent as a potential therapeutic target for immune-related diseases due to the important role of neddylation in immune cell functions.
# [1] = 20 mg/kg daily, EAE mice at peak disease
compound,measurement,setting,value
"NS(=O)(=O)OC[C@@H]1C[C@@H](n2ccc3c(N[C@H]4CCc5ccccc54)ncnc32)C[C@@H]1O [Pevonedistat, pevonedistat]","EAE severity (10-point scale from 0 to 5, scored daily, blinded)","20 mg/kg daily from day -1, compared to placebo-treated group, FIG. 3B",significantly reduced EAE severity
same,density of CD3+ T cells in spinal cord,[1],decreased densities
same,density of Iba1+ myeloid cells in spinal cord,[1],decreased densities
same,spinal cord inflammation (inflammatory infiltrates),"20 mg/kg daily, EAE spinal cords at peak disease, vs placebo",dramatic reduction in spinal cord inflammation
same,"demyelination, histological assessment of CNS tissue","20 mg/kg daily, at peak disease (Day 16)",significant reduction of demyelination
same,mice weights during the disease course,"20 mg/kg daily, placebo group had significant weight loss at peak of disease, FIG. 3C",steady weight
